This is an account of results in patent US20250059172A1, “INDAZOLE COMPOUND AND PHARMACEUTICAL” (NIPPON SHINYAKU CO., LTD., priority 2021, published 2025).

Experiment [1] has as its target human mPGES-1 (Homo sapiens (Human), UniProt O14684). Briefly: mPGES-1 inhibitory activity test. It is filed as biochemical. Conditions: for inhibition at 0.01 µM: 10 nM test compound; for inhibition at 0.1 µM: 100 nM test compound. The procedure, abridged: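 PGE2 formation was quantified by HTRF and reported as percent inhibition at 10 and 100 nM compound or as IC50. The 60-second reaction at 4° C used 1 μM PGH2, after a 20-minute 4° C preincubation of compound (1% DMSO final) with glutathione-supplemented (2.5 mM, pH 7.4) microsomes. The microsomes were from transiently transfected CHO-K1 cells expressing human mPGES-1.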

Experiment [2] concerns human A549 cells. The experiment in a line: Inhibition test of PGE2 production using human A549 cells. In kind it is cell-based. Conditions: IL-1β stimulated A549 cells, 24 h, PGE2 by HTRF, read-out: A549 cell inhibition of PGE2 production IC50. The gist of the method:
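PGE2 (HTRF) and PGF2a (EIA) were quantified in medium after 24 h, 37°C IL-1β stimulation (5 ng/well) of human A549 cells that had received test compound 60 min beforehand (0.1% DMSO, 3% FBS RPMI). IC50 relative to the window between IL-1β-stimulated and unstimulated controls.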

pIC50: −log10 of the molar value.

Sequence of human mPGES-1 (O14684 whole entry): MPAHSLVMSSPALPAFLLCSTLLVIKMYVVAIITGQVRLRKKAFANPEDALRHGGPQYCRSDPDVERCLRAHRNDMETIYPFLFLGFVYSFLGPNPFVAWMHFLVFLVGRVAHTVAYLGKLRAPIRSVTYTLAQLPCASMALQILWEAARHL

The inhibition is the relative decrease from the control value, in per cent. Usually pIC50 stands for −log10 of the IC50, conventionally taken in molar units. With `CC(C)(C)C(=O)NCc1ccc(Cl)c(C(=O)Nc2cccc3c2cnn3-c2ccc(F)cc2)c1Cl` [Example 158, 2,6-Dichloro-3-{[(2,2-dimethylpropanoyl)amino]methyl}-N-[1-(4-fluorophenyl)-1H-indazol-4-yl]benzamide], in experiment [1], the inhibition at 0.01 µM worked out at 49% and the inhibition at 0.1 µM was found to be 100%. In addition, the negative logarithm of the IC50 (pIC50) in experiment [2] is 8.80.

For `COc1cc(-n2ncc3c(NC(=O)c4cc(CNC(=O)CC(C)(C)C)ccc4Cl)cccc32)ccn1` [Example 159, 2-Chloro-5-{[(3,3-dimethylbutanoyl)amino]methyl}-N-[1-(2-methoxypyridin-4-yl)-1H-indazol-4-yl]benzamide], in experiment [1], the inhibition at 0.01 µM was 55% and the inhibition at 0.1 µM amounted to 100%. For the same compound, the negative logarithm of the IC50 (pIC50) in experiment [2] is 8.04.

As for `COc1cc(-n2ncc3c(NC(=O)c4cc(CNC(=O)C(C)(C)CO)ccc4Cl)cccc32)ccn1` [Example 164, 2-Chloro-5-{[(3-hydroxy-2,2-dimethylpropanoyl)amino]methyl}-N-[1-(2-methoxypyridin-4-yl)-1H-indazol-4-yl]benzamide], in experiment [1], the inhibition at 0.01 µM turned out to be 69% and the inhibition at 0.1 µM came out at 100%. Besides, in experiment [2], the pIC50 is 7.55.

For the compound `COc1cc(-n2ncc3c(NC(=O)c4cc(CNS(=O)(=O)C5CC5)ccc4Cl)cccc32)ccn1` [Example 165, 2-Chloro-5-{[(cyclopropylsulfonyl)amino]methyl}-N-[1-(2-methoxypyridin-4-yl)-1H-indazol-4-yl]benzamide], in experiment [1], the inhibition at 0.01 µM worked out at 80% and the inhibition at 0.1 µM was found to be 96%. The pIC50 in experiment [2] was 8.07.

For the compound `O=C(Nc1cccc2c1cnn2-c1cncc(C(F)(F)F)c1)c1cc(CNC(=O)C2(C(F)(F)F)CC2)ccc1Cl` [Example 168, 2-Chloro-5-[({[1-(trifluoromethyl)cyclopropyl]carbonyl}amino)methyl]-N-{1-[5-(trifluoromethyl)pyridin-3-yl]-1H-indazol-4-yl}benzamide], in experiment [1], the inhibition at 0.01 µM was found to be 53% and the inhibition at 0.1 µM was determined as 92%. Moreover, the pIC50 in experiment [2] is 8.92.

As for `CC(C)(CO)C(=O)NCc1ccc(Cl)c(C(=O)Nc2cccc3c2cnn3-c2cncc(C(F)(F)F)c2)c1` [Example 171, 2-Chloro-5-{[(3-hydroxy-2,2-dimethylpropanoyl)amino]methyl}-N-{1-[5-(trifluoromethyl)pyridin-3-yl]-1H-indazol-4-yl}benzamide], in experiment [1], the inhibition at 0.1 µM was 100%. Besides, the pIC50 in experiment [2] is 8.02.

`O=C(Nc1cccc2c1cnn2-c1cncc(C(F)(F)F)c1)c1cc(CNS(=O)(=O)C2CC2)ccc1Cl` [Example 172, 2-Chloro-5-{[(cyclopropylsulfonyl)amino]methyl}-N-{l-[5-(trifluoromethyl)pyridin-3-yl]-1H-indazol-4-yl}benzamide]: the inhibition at 0.01 µM in experiment [1] stood at 100%. Also, the negative logarithm of the IC50 (pIC50) in experiment [2] is 8.25.

On to `CC(C)(C)CC(=O)NCc1ccc(Cl)c(C(=O)Nc2cccc3c2cnn3-c2ccc(C(F)(F)F)nc2)c1` [Example 173, 2-Chloro-5-{[(3,3-dimethylbutanoyl)amino]methyl}-N-{1-[6-(trifluoromethyl)pyridin-3-yl]-1H-indazol-4-yl}benzamide], for which, in experiment [1], the inhibition at 0.01 µM is 54% and the inhibition at 0.1 µM is 86%. In addition, in experiment [2], the pIC50 is 8.17.

For `O=C(Nc1cccc2c1cnn2-c1ccc(C(F)(F)F)nc1)c1cc(CNC(=O)C2CCCC2)ccc1Cl` [Example 174, 2-Chloro-5-{[(cyclopentylcarbonyl)amino]methyl}-N-{1-[6-(trifluoromethyl)pyridin-3-yl]-1H-indazol-4-yl}benzamide], in experiment [1], the inhibition at 0.01 µM stood at 85% and the inhibition at 0.1 µM worked out at 86%. For the same compound, in experiment [2], the pIC50 was 8.72.

Consider `O=C(Nc1cccc2c1cnn2-c1ccc(C(F)(F)F)nc1)c1cc(CNS(=O)(=O)C2CC2)ccc1Cl` [Example 179, 2-Chloro-5-{[(cyclopropylsulfonyl)amino]methyl}-N-{1-[6-(trifluoromethyl)pyridin-3-yl]-1H-indazol-4-yl}benzamide], for which, in experiment [1], the inhibition at 0.01 µM came to 59% and the inhibition at 0.1 µM came out at 95%. Also, the pIC50 in experiment [2] is 8.36.

In the case of `CC(C)n1ncc2c(NC(=O)c3cc(CNC(=O)C4CCCC4)ccc3Cl)cccc21` [Example 180, 2-Chloro-5-{[(cyclopentylcarbonyl)amino]methyl}-N-[1-(propan-2-yl)-1H-indazol-4-yl]benzamide], the inhibition at 0.01 µM in experiment [1] came out at 75%. In addition, the pIC50 in experiment [2] was 7.39.

With `O=C(Nc1cccc2c1cnn2-c1cscn1)c1cc(CNC(=O)C2CCCC2)ccc1Cl` [Example 188, 2-Chloro-5-{[(cyclopentylcarbonyl)amino]methyl}-N-[1-(1,3-thiazol-4-yl)-1H-indazol-4-yl]benzamide], in experiment [1], the inhibition at 0.01 µM turned out to be 68%. Moreover, the pIC50 in experiment [2] is 6.99.

With `O=C(Nc1cccc2c1cnn2-c1cscn1)c1cc(CNC(=O)C2(C(F)(F)F)CC2)ccc1Cl` [Example 189, 2-Chloro-N-[1-(1,3-thiazol-4-yl)-1H-indazol-4-yl]-5-[({[1-(trifluoromethyl)cyclopropyl]carbonyl}amino)methyl]benzamide], in experiment [1], the inhibition at 0.01 µM worked out at 80%. Moreover, in experiment [2], the pIC50 is 7.63.

For the compound `CC(C)(CO)C(=O)NCc1ccc(Cl)c(C(=O)Nc2cccc3c2cnn3-c2cscn2)c1` [Example 192, 2-Chloro-5-{[(3-hydroxy-2,2-dimethylpropanoyl)amino]methyl}-N-[1-(1,3-thiazol-4-yl)-1H-indazol-4-yl]benzamide], in experiment [1], the inhibition at 0.01 µM worked out at 70% and the inhibition at 0.1 µM was 90%. Also, in experiment [2], the negative-log IC50 (pIC50) was 7.50.

Regarding `O=C(Nc1cccc2c1cnn2-c1cscn1)c1cc(CNS(=O)(=O)C2CC2)ccc1Cl` [Example 193, 2-Chloro-5-{[(cyclopropylsulfonyl)amino]methyl}-N-[1-(1,3-thiazol-4-yl)-1H-indazol-4-yl]benzamide], in experiment [1], the inhibition at 0.01 µM is 71%. The pIC50 in experiment [2] is 7.48.

Consider `CC(C)(C)C(=O)NCc1ccc(C(F)(F)F)c(C(=O)Nc2cccc3c2cnn3-c2ccc(OC(F)(F)F)cc2)c1` [Example 194, 5-{[(2,2-Dimethylpropanoyl)amino]methyl}-N-{1-[4-(trifluoromethoxy)phenyl]-1H-indazol-4-yl}-2-(trifluoromethyl)benzamide], for which, in experiment [1], the inhibition at 0.01 µM amounted to 62% and the inhibition at 0.1 µM is 83%. Also, the pIC50 in experiment [2] was 9.15.

Regarding `CC(C)(C)C(=O)NCc1ccc(C(F)(F)F)c(C(=O)Nc2cccc3c2cnn3-c2cccc(OC(F)(F)F)c2)c1` [Example 195, 5-{[(2,2-Dimethylpropanoyl)amino]methyl}-N-{1-[3-(trifluoromethoxy)phenyl]-1H-indazol-4-yl}-2-(trifluoromethyl)benzamide], in experiment [1], the inhibition at 0.01 µM came out at 65% and the inhibition at 0.1 µM came to 84%. Also, the pIC50 in experiment [2] is 9.10.

Regarding `CC(C)(C)C(=O)NCc1ccc(C(F)(F)F)c(C(=O)Nc2cccc3c2cnn3-c2ccc(C(F)(F)F)nc2)c1` [Example 196, 5-{[(2,2-Dimethylpropanoyl)amino]methyl}-2-(trifluoromethyl)-N-{1-[6-(trifluoromethyl)pyridin-3-yl]-1H-indazol-4-yl}benzamide], in experiment [1], the inhibition at 0.01 µM amounted to 60% and the inhibition at 0.1 µM was 78%. Moreover, the negative logarithm of the IC50 (pIC50) in experiment [2] is 8.70.

For `Cc1ccc(-n2ncc3c(NC(=O)c4cc(CNC(=O)C(C)(C)C)ccc4C(F)(F)F)cccc32)cc1Cl` [Example 200, N-[1-(3-chloro-4-methylphenyl)-1H-indazol-4-yl]-5-{[(2,2-dimethylpropanoyl)amino]methyl}-2-(trifluoromethyl)benzamide], in experiment [1], the inhibition at 0.01 µM amounted to 69% and the inhibition at 0.1 µM amounted to 103%. Further, the negative-log IC50 (pIC50) in experiment [2] is 9.05.

Turning to `CC(C)(C)C(=O)NCc1ccc(C(F)(F)F)c(C(=O)Nc2cccc3c2cnn3-c2cscn2)c1` [Example 201, 5-{[(2,2-Dimethylpropanoyl)amino]methyl}-N-[1-(1,3-thiazol-4-yl)-1H-indazol-4-yl]-2-(trifluoromethyl)benzamide], in experiment [1], the inhibition at 0.01 µM was 85% and the inhibition at 0.1 µM worked out at 97%. Further, the pIC50 in experiment [2] was 7.70.

Take `CC(C)n1ncc2c(NC(=O)c3cc(CNC(=O)C(C)(C)C)ccc3C(F)(F)F)cccc21` [Example 202, 5-{[(2,2-Dimethylpropanoyl)amino]methyl}-N-[1-(propan-2-yl)-1H-indazol-4-yl]-2-(trifluoromethyl)benzamide]: in experiment [1], the inhibition at 0.01 µM is 59% and the inhibition at 0.1 µM is 79%. The pIC50 in experiment [2] was 7.69.

For `Cn1ncc2c(NC(=O)c3cc(CNC(=O)C4CCCC4)ccc3Cl)cccc21` [Example 204, 2-Chloro-5-{[(cyclopentylcarbonyl)amino]methyl}-N-(1-methyl-1H-indazol-4-yl)benzamide], in experiment [1], the inhibition at 0.01 µM was 57% and the inhibition at 0.1 µM turned out to be 85%. Besides, in experiment [2], the pIC50 is 7.36.

On to `COCC(=O)NCc1ccc(Cl)c(C(=O)Nc2cccc3c2cnn3C)c1` [Example 207, 2-Chloro-5-{[(methoxyacetyl)amino]methyl}-N-(1-methyl-1H-indazol-4-yl)benzamide], for which, in experiment [1], the inhibition at 0.01 µM turned out to be 59%. The pIC50 in experiment [2] was 6.52.

On to `Cn1ncc2c(NC(=O)c3cc(CNS(=O)(=O)C4CC4)ccc3Cl)cccc21` [Example 208, 2-Chloro-5-{[(cyclopropylsulfonyl)amino]methyl}-N-(1-methyl-1H-indazol-4-yl)benzamide], for which, in experiment [1], the inhibition at 0.01 µM was 63% and the inhibition at 0.1 µM stood at 68%. The pIC50 in experiment [2] was 6.10.
